Where “and” joins values, the source holds several entries; their conditions need not be identical. Identical values can stand only once.
Tests used:
HMG-CoA reductase = biological target: T1, HMG-CoA reductase (Homo sapiens, UniProt P04035); experiment: HMG-CoA reductase activity in isolated chicken hepatocytes; type: cell-based
T1 construct: hepatocytes isolated from livers of 8-week old female chickens; endogenous in cells; host or cells: primary chicken hepatocytes
T1 sequence (P04035 1-888): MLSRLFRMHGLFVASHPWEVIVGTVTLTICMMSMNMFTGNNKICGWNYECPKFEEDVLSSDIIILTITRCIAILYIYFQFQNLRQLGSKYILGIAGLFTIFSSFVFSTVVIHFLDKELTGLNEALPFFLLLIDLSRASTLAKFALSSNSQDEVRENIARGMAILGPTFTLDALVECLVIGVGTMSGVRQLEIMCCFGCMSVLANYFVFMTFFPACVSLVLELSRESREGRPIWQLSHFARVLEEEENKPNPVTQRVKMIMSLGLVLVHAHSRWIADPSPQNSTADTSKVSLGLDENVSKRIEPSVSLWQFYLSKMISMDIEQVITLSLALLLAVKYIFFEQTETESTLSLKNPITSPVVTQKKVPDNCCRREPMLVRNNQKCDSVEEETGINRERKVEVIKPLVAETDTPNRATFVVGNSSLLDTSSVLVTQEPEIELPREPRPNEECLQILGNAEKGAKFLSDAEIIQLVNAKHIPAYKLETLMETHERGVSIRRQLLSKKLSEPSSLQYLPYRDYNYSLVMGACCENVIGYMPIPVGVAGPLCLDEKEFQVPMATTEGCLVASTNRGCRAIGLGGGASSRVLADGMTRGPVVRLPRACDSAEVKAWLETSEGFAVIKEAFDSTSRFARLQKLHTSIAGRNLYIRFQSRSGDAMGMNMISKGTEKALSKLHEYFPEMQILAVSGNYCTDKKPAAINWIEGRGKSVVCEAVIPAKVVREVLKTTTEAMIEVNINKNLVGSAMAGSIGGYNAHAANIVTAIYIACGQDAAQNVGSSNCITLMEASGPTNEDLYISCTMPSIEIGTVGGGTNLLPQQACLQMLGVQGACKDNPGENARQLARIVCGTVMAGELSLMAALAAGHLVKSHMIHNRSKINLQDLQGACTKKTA
Procedure: This study measured the effects of three tocotrienols isolated from rice bran on cholesterol-related enzyme activity in hepatocytes isolated from livers of 8-week old female chickens. The chickens were fed the chick mash diet for 8 weeks. They were then fasted for 40 hours and finally refed for 48 hours before sacrifice. The hepatocytes were then prepared following standard methods.
Each compound was isolated from TRF using the following protocol: A bond Elute amine column was equilibrated with 2 ml hexane. 10 mg of TRF (dissolved in 0.5 ml hexane) was bound to the amine column. The column was washed with 1 ml of hexane, then with 1 ml of 3% isopropanol in hexane. P-21 and P-25 were eluted off the column with 5% isopropanol in hexane. Then using 10% isopropanol in hexane, the impurity P-20 was eluted. α-tocotrienol was also tested.
We next measured the effects of various tocotrienols and tocotrienol-like compounds isolated from rice bran on the activity of HMG-CoA reductase. 20.0 g of stabilized rice bran was extracted with 200.0 ml of methanol to remove various UV absorbing impurities and tocotrienols (6.7 mg total). This step was repeated four times. The remaining residue was dried under vacuum in a desiccator and then heated at 180° C. for 2 hours under 30 psi pressure. Then the dried residue was extracted again with 200.0 ml methanol (3.4 mg). […]

[1] = tested on: human peripheral blood neutrophils; experiment: Release of superoxide in human peripheral blood neutrophils; type: cell-based; conditions: for 5×10^5 cells/hour, phorbol myrstate acetate
From the text: We determined the effect of a known tocotrienol, γ-T3, on the release of superoxide in human peripheral blood neutrophils. Neutrophils are an extracellular source of oxygen free radicals. Once activated, these neutrophils can attach to endothelial tissue where they release a potent toxin, superoxide. Superoxide amplifies the inflammatory response and impairs local circulation of the blood.
The neutrophils we tested were isolated by density centrifugation on Ficoll-Hypaque gradients using conventional methods (see E. Serbinova et al., "Free Radical Recycling and Intramembrane Mobility in the Antioxidant Properties of α-Tocopherol and α-Tocotrienol", Free Rad. Bio. and Med., 10, pp. 263-75 (1991)). The neutrophils were then placed in a 96-well plate. γ-T3 and phorbol myrstate acetate were added to the wells at the same time. The secretion of superoxide anion was measured as the superoxide dismutase-inhibitable reduction of ferricytochrome C.

Compound	maximum reduction in activity of HMG-CoA reductase (HMG-CoA reductase)	amount of superoxide released (control 19.7 nmole) ([1]; concentration 10^-5) [nmol]	amount of superoxide released (control 19.7 nmole) ([1]; concentration 10^-6) [nmol]
CC(C)=CCC/C(C)=C/CC/C(C)=C/CCC1CCc2cc(O)ccc2O1 (stereo not drawn) [P25, 3,4-dihydro-2-(4,8,12-trimethyltrideca-3'(E),7'(E),11'-trienyl)-2H-1-benzopyran-6-ol]	46.6% and 58.6%		
CC(C)=CCC/C(C)=C/CC/C(C)=C/CCC1(C)CCc2cc(O)c(C)c(C)c2O1 (stereo not drawn) [γ-T3, γ-tocotrienol, reference compound]		0	8.0

From US6239171A, “Tocotrienols and tocotrienol-like compounds and methods for their use” (Lipogenics, Inc., priority 1998, dated 2001)
